Entries after “also recorded” stand apart in the source; their conditions may differ.

One test relates to LNCaP cells. Kind of test: Quantitative colony forming assay, cell survival of antiandrogen-sensitive LNCaP cells. It is filed as cell-based. The note with it: for cell survival of LNCaP cells: increasing concentrations of recombinant human NRG-1, vehicle versus enzalutamide (3 μM). From the text:
It was next examined whether NRG-1 polypeptides differentially affect antiandrogen-sensitive and resistant prostate cancer cells. Antiandrogen-sensitive LNCaP prostate cancer cells express androgen receptor, whereas antiandrogen-resistant Du145 and PC3 cells express very limited androgen receptor (FIG. 3A).
The paradoxical toxic and salutary effects of NRG-1 polypeptides on antiandrogen-sensitive versus antiandrogen-resistant cells mirrors the outcomes in CSPC and CRPC patients, respectively.
LNCaP cells were then transfected with control shRNA versus shRNA targeting HER3 (FIG. 8A). Knockdown of HER3 rescued LNCaP cells from NRG-1- and enzalutamide-induced cell death (FIG. 7D and FIG. 8B). Relatedly, knockdown of HER2—but not HER4—reduces or eliminates Du145 cell benefit from NRG-1 polypeptide treatment (FIG. 8C-8D). To further confirm that HER2/HER3 heterodimerization can mediate a pro-survival response to NRG-1 polypeptides in CRPC, LNCaP cells were treated with lapatinib that induces HER2/HER3 heterodimerization.

The next test deals with NRG-1. Kind of test: Blood levels of NRG-1 in patients with cancer before and during PARP inhibitor treatment. In kind it is in vivo, human. The note with it: two patients with cancer (001 niraparib, 002 olaparib), Day 0 versus Days 7, 14.

Experimental for NRG-1: Blood levels of NRG-1 of five patients with cancer were measured prior to and during treatment with PARP inhibitors.

Regarding `CNC(=O)c1ccc(N2C(=S)N(c3ccc(C#N)c(C(F)(F)F)c3)C(=O)C2(C)C)cc1F` [enzalutamide], the entries for the “cell survival of LNCaP cells” value in the test with LNCaP cells and in the test with LNCaP cells (listed as Enz) were “function in an additive manner” and “induced death of LNCaP cells in an additive fashion”, respectively.
As for `CS(=O)(=O)CCNCc1ccc(-c2ccc3ncnc(Nc4ccc(OCc5cccc(F)c5)c(Cl)c4)c3c2)o1` [lapatinib], the “effect of pre-treatment on NRG-1- and antiandrogen-mediated death of LNCaP cells” value with LNCaP cells (pre-treatment with lapatinib, then NRG-1 and enzalutamide) was “rescues LNCaP cells from antiandrogen enzalutamide and NRG-1; also recorded: abolished NRG-1- and antiandrogen-mediated cell death”.
For the compound `NC(=O)c1cccc2cn(-c3ccc([C@@H]4CCCNC4)cc3)nc12` [niraparib], the “blood levels of NRG-1” value in the test on NRG-1 is on record as “reduced over the course of treatment”.
For `O=C(c1cc(Cc2n[nH]c(=O)c3ccccc23)ccc1F)N1CCN(C(=O)C2CC2)CC1` [olaparib], the “blood levels of NRG-1” value in the test on NRG-1 is on record as “reduced over the course of treatment”; with NRG-1 (listed as Olaparib) it was “reduced”.

Source of the values: patent US20240285644A1, “ASSESSING AND TREATING PROSTATE CANCER” (Mayo Foundation for Medical Education and Research, priority 2021, published 2024).
